Read-outs that look alike come from different tables or passages of the source.
Columns and labels:
HCV replicon = experiment: microbe, parasite or virus in culture; format: cell-based, hepatitis C virus
[1] = Hepatitis C virus, read-out: Replicon IC50 μM

melting point [°C]	Compound	IC50 (HCV replicon; [1]) [µM]	other results
154 to 158	CCOc1ccc2c(C#N)c(-c3ccc(NC(=O)OC(C)C4CC4)cc3)n(C3CCC3)c2c1 (racemic) [Compound 1147, rac-[4-(3-cyano-1-cyclobutyl-6-ethoxy-1H-indol-2-yl)-phenyl]-carbamic acid 1-cyclopropyl-ethyl ester]		
	COc1ccc(-n2cc(C#N)c3cc4c(cc32)OCO4)cc1 [Compound 44, 5-(4-methoxyphenyl)-5H-[1,3]dioxolo[4,5-f]indole-7-carbonitrile]	> 2	
	CCn1cc(-c2ccon2)c2ccc(OC)cc21 [Compound 57, 1-ethyl-3-isoxazol-3-yl-6-methoxy-1-H-indole]		IC50 (HCV replicon; read-out: Replicon IC50): > 2 µM
	CCn1cc(-c2nccs2)c2ccc(OC)cc21 [Compound 73, 1-ethyl-6-methoxy-3-thiazol-2-yl-1H-indole]	> 2	
	CCn1c(C#Cc2ccc(NP(C)(C)=O)cc2)c(C#N)c2ccc(OC)cc21 [Compound 227, N-[4-(3-cyano-1-ethyl-6-methoxy-1H-indol-2-ylethynyl)-phenyl]-dimethylphosphinic amide]		IC50 (HCV replicon; read-out: Replicon IC50): 0.5 to 2 µM
	CCn1c(-c2ccc(NC(=O)C3CC3)cc2)c(C#N)c2cc(OC)ccc21 [Compound 244]		IC50 (HCV replicon; read-out: Replicon IC50): 0.5 to 2 µM
	CCn1c(-c2ccc3oc(=O)[nH]c3c2)c(C#N)c2ccc(OC)cc21 [Compound 332, 1-ethyl-6-methoxy-2-(2-oxo-2,3-dihydro-benzooxazol-5-yl)-1H-indole-3-carbonitrile]	> 2	
	CCn1c(-c2ccc(NC(=O)NCCCl)cc2)c(C#N)c2ccc(OC)cc21 [Compound 442, 1-(2-chloroethyl)-3-[4-(3-cyano-1-ethyl-6-methoxy-1H-indol-2-yl)-phenyl]-urea]	> 2	
	CCOC(=O)Nc1cccc(-c2c(C#N)c3ccc(OCCCN4CCCC4)cc3n2CC)c1 [Compound 530, {3-[3-cyano-1-ethyl-6-(3-pyrrolidin-1-yl-propoxy)-1H-indol-2-yl]-phenyl}-carbamic acid ethyl ester]		IC50 (HCV replicon; Hepatitis C virus, read-out: Replicon IC50): < 0.5 µM
	C=Cn1c(-c2ccc(NS(=O)(=O)CCCCl)cc2)c(C#N)c2ccc(OC)cc21 [Compound 636]		IC50 (HCV replicon; read-out: Replicon IC50): 0.5 to 2 µM
	CCn1c(-c2ccc(N3CCOC3=O)cc2)c(C#N)c2ccc(OC(C)C)cc21 [Compound 638, 1-ethyl-6-isopropoxy-2-[4-(2-oxo-oxazolidin-3-yl)-phenyl]-1H-indole-3-carbonitrile]	> 2	
	CCn1c(-c2ccc(NS(=O)(=O)CCN3CCOCC3)cc2)c(C#N)c2ccc(OC)cc21 [Compound 653, 2-morpholin-4-yl-ethanesulfonic acid [4-(3-cyano-1-ethyl-6-methoxy-1H-indol-2-yl)-phenyl]amide]	> 2	
	CCn1c(-c2ccc(N3CCNC3=O)cc2)c(C#N)c2ccc(OC)cc21 [Compound 771, 1-ethyl-6-methoxy-2-[4-(2-oxo-imidazolidin-1-yl)-phenyl]-1H-indole-3-carbonitrile]	< 0.5	
	CCn1c(-c2ccc([N+](=O)[O-])cc2)c(C#N)c2cc(C(C)=O)c(OC)cc21 [Compound 844, 5-acetyl-1-ethyl-6-methoxy-2-(4-nitro-phenyl)-1H-indole-3-carbonitrile]	> 2	
	CCn1c(-c2ccc([N+](=O)[O-])cc2)c(C#N)c2cc(CN3CCOCC3)c(OC)cc21 [Compound 845, 1-ethyl-6-methoxy-5-morpholin-4-ylmethyl-2-(4-nitro-phenyl)-1H-indole-3-carbonitrile]	> 2	
194 to 195	CCn1c(-c2ccc(NS(=O)(=O)CC)cc2)c(C#N)c2ccc(OC(F)(F)F)cc21 [Compound 881, ethanesulfonic acid [4-(3-cyano-1-ethyl-6-trifluoromethoxyindol-2-yl)phenyl]amide]		

melting point [°C]	Compound	IC50 (HCV replicon; [1]) [µM]	other results
230 to 232	CCn1c(-c2ccc(N3CCCS3(=O)=O)cc2)c(C#N)c2ccc(OC(F)(F)F)cc21 [Compound 903, 2-[4-(1,1-dioxidoisothiazolidin-2-yl)phenyl]-1-ethyl-6-(trifluoromethoxy)indole-3-carbonitrile]		
147 to 148	C=CCn1c(-c2ccc(N3CCCC3=O)cc2)c(C#N)c2ccc(OC)cc21 [Compound 938, 1-allyl-6-methoxy-2-[4-(2-oxopyrrolidin-1-yl)-phenyl]-1H-indole-3-carbonitrile]		
232 to 234	CCn1c(-c2ccc(N3CCCS3(=O)=O)cc2)c(C#N)c2ccc(OC3CC3)cc21 [Compound 1046, 6-cyclopropoxy-2-[4-(1,1-dioxo-1λ^6-isothiazolidin-2-yl)-phenyl]-1-ethyl-1H-indole-3-carbonitrile]		
177 to 178	CCn1c(-c2ccc(NC(=O)OC)cc2)c(C#N)c2ccc(OC(F)F)cc21 [Compound 1130, [4-(3-cyano-6-difluoromethoxy-1-ethyl-1H-indol-2-yl)-phenyl]-carbamic acid methyl ester]		
260 to 266	CCOc1ccc2c(C#N)c(-c3ccc(NC(=O)N4CCOCC4)cc3)n(C3CCC3)c2c1 [Compound 1166, morpholine-4-carboxylic acid [4-(3-cyano-1-cyclobutyl-6-ethoxy-1H-indol-2-yl)-phenyl]-amide]		
202.3 to 205.9	CCn1c(-c2ccc(NC(=O)C3CC3)cc2)c(C#N)c2ccc(OCCn3ccnc3)cc21 [Compound 1183, cyclopropanecarboxylic acid {4-[3-cyano-1-ethyl-6-(2-imidazol-1-yl-ethoxy)-1H-indol-2-yl]-phenyl}-amide]		
135 to 141	CCOc1ccc2c(C#N)c(-c3ccc(N(CC)CC)cc3)n(C3CCC3)c2c1 [Compound 1217, 1-Cyclobutyl-2-(4-diethylamino-phenyl)-6-ethoxy-1H-indole-3-carbonitrile]		
204 to 205	COc1ccc2c(C#N)c(-c3ccc(NC(=O)OC(C)C)cc3)n(C3CC3)c2c1 [Compound 1234, [4-(3-cyano-1-cyclopropyl-6-methoxyindol-2-yl)phenyl]carbamic acid isopropyl ester]		
187 to 193	CCNc1ccc(-c2c(C#N)c3ccc(OCC)cc3n2C2CCC2)cc1 [Compound 1239, 1-cyclobutyl-6-ethoxy-2-(4-ethylaminophenyl)-1H-indole-3-carbonitrile]		
137 to 142	CCOc1ccc2c(C#N)c(-c3ccc(N(CC)C(=O)OC4CCCC4)cc3)n(C3CCC3)c2c1 [Compound 1251, [4-(3-cyano-1-cyclobutyl-6-ethoxy-1H-indol-2-yl)-phenyl]-ethyl-carbamic acid cyclopentyl ester]		
208	CC(C)OC(=O)Nc1ccc(-c2c(C#N)c3ccc(OCCCn4cncn4)cc3n2C2CCC2)cc1 [Compound 1255, {4-[3-cyano-1-cyclobutyl-6-(3-[1,2,4]triazol-1-yl-propoxy)-1H-indol-2-yl]-phenyl}-carbamic acid isopropyl ester]		
214	CC(C)OC(=O)Nc1ccc(-c2c(C#N)c3ccc(OCCn4cncn4)cc3n2C2CCC2)cc1 [Compound 1276, {4-[3-cyano-1-cyclobutyl-6-(2-[1,2,4]triazol-1-yl-ethoxy)-1H-indol-2-yl]-phenyl}-carbamic acid isopropyl ester]		
88 to 90	CC(C)NC(=O)Nc1ccc(-c2c(C#N)c3ccc(OCCCn4cncn4)cc3n2C2CCC2)cc1 [Compound 1314, 1-{4-[3-cyano-1-cyclobutyl-6-(3-[1,2,4]triazol-1-yl-propoxy)-1H-indol-2-yl]-phenyl}-3-isopropyl-urea]		
98	CC(OC(=O)Nc1ccc(-c2c(C#N)c3ccc(OCCn4cncn4)cc3n2C2CCC2)cc1)C1CC1 (stereo not shown) [Compound 1329, {4-[3-cyano-1-cyclobutyl-6-(2-[1,2,4]triazol-1-yl-ethoxy)-1H-indol-2-yl]-phenyl}-carbamic acid 1-cyclopropyl-ethyl ester]		
	N-(2-chloro-ethyl)-N′-[4-(3-cyano-1-ethyl-6-methoxy-1H-indol-2-yl)phenyl]sulfamide [Compound 724]		IC50 (HCV replicon; read-out: Replicon IC50): 0.5 to 2 µM
	ethanesulfonic acid [4-(3-cyano-6-difluoromethoxy-1-ethyl-1H-indol-2-yl)-phenyl]-amide [Compound 519]		IC50 (HCV replicon; read-out: Replicon IC50): < 0.5 µM

Compound	melting point [°C]	IC50 (HCV replicon; [1]) [µM]	other results
CCn1cc(C#N)c2ccc(OC)cc21 [Compound 5, 1-ethyl-6-methoxy-1H-indole-3-carbonitrile]	64 to 66	> 2	
N#Cc1c(-n2cccc2)[nH]c2cc([N+](=O)[O-])ccc12 [Compound 7, 6-nitro-2-pyrrol-1-yl-1H-indole-3-carbonitrile]	304 to 305	0.5 to 2	
CCOc1ccc2c(C#N)cn(CC)c2c1 [Compound 9, 6-ethoxy-1-ethyl-1H-indole-3-carbonitrile]	61 to 63	> 2	
CCn1cc(C#N)c2ccc(Oc3cnccn3)cc21 [Compound 13, 1-ethyl-6-(pyrazin-2-yloxy)-1H-indole-3-carbonitrile]	161 to 164	> 2	
CCn1cc(C#N)c2ccc(C(=O)Nc3ccccc3)cc21 [Compound 15, 3-cyano-1-ethyl-1H-indole-6-carboxylic acid phenylamide]	225 to 226	> 2	
CCn1cc(C#N)c2ccc(NC(=O)OC(C)(C)C)cc21 [Compound 16, t-butyl(3-cyano-1-ethyl-1H-indol-6-yl)-carbamate]	175 to 177	> 2	
CCc1nc(-c2cn(CC)c3cc(OC)ccc23)no1 [Compound 28, 1-ethyl-3-(5-ethyl-[1,2,4]oxadiazol-3-yl)-6-methoxy-1H-indole]	68 to 70	0.5 to 2	
CCn1cc(-c2ccccc2)c2cc([N+](=O)[O-])ccc21 [Compound 41, N-ethyl-3-phenyl-5-nitroindole]	155 to 175	> 2	
CCOC(=O)c1c(C)n(-c2ccc(OC)cc2)c2ccc(OC(F)F)cc12 [Compound 49, ethyl 5-difluoromethoxy-1-(4-methoxyphenyl)-2-methyl-1H-indole-3-carboxylate]	89 to 90	> 2	
CCc1nnc(-c2cn(CC)c3cc(OC)ccc23)o1 [Compound 54, 1-ethyl-6-methoxy-3-(5-ethyl-[1,3,4]oxadiazol-2-yl)-1H-indole]	99 to 101	> 2	

Reference: patent US7868037B2 (PTC Therapeutics, Inc., priority 2004, dated 2011)
